From patent US20040137514A1, “Use of antibodies against specific mhc-peptide complexes” (priority 2000, published 2004)

How the values were obtained:
T cells of RA patients = conditions: cited from earlier work
BLCL = assay: FACS control: peptide binding to BLCL; set-up: species or system human; conditions: data not shown
Experimental: Briefly, 10^6 BLCL were incubated with 40 μg peptide in 500 μl DMEM/HAM's F12 or blank medium for 4 h at 37° C. After this incubation, the cells were washed with PBS, 2% FCS, 0.02% sodiumazide. Approximately 2×10^5 cells were incubated for 1 h, 4° C. with 130 μl MAb-containing hybridoma supernatant plus 20 μl PBS, 20% FCS, 0.02% sodiumazide. After washing the cells twice with PBS, 2% FCS, 0.02% sodiumazide, they were incubated for 1 h, 4° C. with 50 μl PBS, 20% FCS, 0.02% sodiumazide plus 10 μl Goat anti-mouseIg/FITC (Beckton & Dickinson). Subsequently, the cells were washed three times with PBS, 2% FCS, 0.02% sodiumazide and finally resuspended in 400 μl PBS, 2% p-formaldehyde. As a control for peptide binding, cells were incubated with biotinylated HC gp39263-275 and stained with streptavidin/PE (Beckton & Dickinson). As a control for HLA-DR expression, staining was performed with anti-HLA/DR, L243 (purified Ig from hybridoma ATCC HB 55). Stained cells were analyzed with the FACScan™ (Beckton & Dickinson). In all cases, forward and side scatter analysis was applied to eliminate dead cells and debris from further analysis.
These homozygous BLCL were loaded with HC gp-39263-275 and subsequently stained with ORG38948 12A. In a series of experiments, ORG38948 12A stains HC gp-39^263-275 in the context of both DRB1*0401 and DRB1*0407 (Table V). […]

[1] = DBA/1 mice, semi-therapeutic regime; cited from earlier work
[2] = BALB/c mice; cited from earlier work
[3] = intranasal administration prior to immunization; cited from earlier work

For “326-338: peptide 326-338 of HC gp-39 (VGYDDQESVKSKV; HC gp-39 AA 326-338; listed as Homo sapiens)”, the “recognition by T cells of RA patients” value (T cells of RA patients) is given as “recognized”.

With RSFTLASSETG the “binding of peptide to the BLCL” value (BLCL) was “binds to the BLCL”.

In the case of “human cartilage glycoprotein-39 [HC gp-39]”, the “incidence and severity of collagen type II induced arthritis” value [1] is given as “could reduce”, the outcome of immunisation [2] is given as “development of a chronic, relapsing arthritis” and the DTH responses [3] is given as “complete abrogation of DTH responses”. For the same substance, the disease development [3] was “protection from or delayed onset of the disease”.
